Data published in patent publication US11058688B2, “Imidazopiperazine inhibitors of transcription activating proteins” (Board of Regents, The University of Texas System, priority 2018, dated 2021).

How the values were obtained:
[1] = target: GST-CBP(1081-1197) bromodomain (Homo sapiens (Human), UniProt Q92793); experiment: CBP AlphaScreen Assay; conditions: binding to biotin-H4(1-21) Ac-K5/8/12/16 peptide
Protocol: (§1) Specific binding of the CBP or BRD4 bromodomain to the acetylated peptide derived from the H4 histone substrate (tetra acetylated H4(1-21) Ac-K5/8/12/16) was measured in absence or presence of inhibitors.
(§2) The standard dose response curves were fitted by Genedata Screener software using the variable-slope model: Signal=Signalnegative control+(SignalDMSO control−Signalnegative control)/(1+(IC50/Dose)^Hill slope).
(§3) Only Signal and Dose in the equation were treated as known values.

[2] = target: BRD4(49-170) bromodomain (Homo sapiens (Human), UniProt O60885); experiment: BRD4 AlphaScreen Assay; conditions: binding to biotin-H4(1-21) Ac-K5/8/12/16 peptide
Protocol: as §1, §2, §3

GST-CBP(1081-1197) bromodomain, sequence (Q92793 1081-1197): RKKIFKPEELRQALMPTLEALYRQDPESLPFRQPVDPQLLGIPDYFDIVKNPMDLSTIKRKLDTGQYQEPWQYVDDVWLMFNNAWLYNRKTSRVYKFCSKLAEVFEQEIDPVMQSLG

| SMILES | IC50 [1] [nM] | IC50 [2] [µM] |
| --- | --- | --- |
| CNC(=O)N1CCn2c(C3CC3)nc(-c3ccnc4cc(-c5cnn(C)c5)c(OC(F)(F)F)cc34)c2C1 [Example 2, 3-cyclopropyl-N-methyl-1-(7-(1-methyl-1H-pyrazol-4-yl)-6-(trifluoromethoxy)quinolin-4-yl)-5,6-dihydroimidazo[1,5-a]pyrazine-7(8H)-carboxamide] | 3 | 8.9 |
| CNC(=O)N1CCn2c(C3CC3)nc(-c3cncc4cc(-c5cnn(C)c5)c(C(F)F)cc34)c2C1 [Example 40, 3-Cyclopropyl-1-(6-(difluoromethyl)-7-(1-methyl-1H-pyrazol-4-yl)isoquinolin-4-yl)-N-methyl-5,6-dihydroimidazo[1,5-a]pyrazine-7(8H)-carboxamide] | 2 | 4.78 |
| CNC(=O)N1CCn2c(C)nc(-c3ccc4c(c3)c(-c3cnn(C)c3)nn4C)c2C1 [Example 48, N,3-dimethyl-1-(1-methyl-3-(1-methyl-1H-pyrazol-4-yl)-1H-indazol-5-yl)-5,6-dihydroimidazo[1,5-a]pyrazine-7(8H)-carboxamide] | 36 | > 10 |
| CNC(=O)N1CCn2c(C3CC3)nc(-c3cccc4nc(-c5cnn(C)c5)c(C(F)F)cc34)c2C1 [Example 34, 3-Cyclopropyl-1-(3-(difluoromethyl)-2-(1-methyl-1H-pyrazol-4-yl)quinolin-5-yl)-N-methyl-5,6-dihydroimidazo[1,5-a]pyrazine-7(8H)-carboxamide] | 37 | 17.3 |
| CNC(=O)c1nc(-c2ccc3c(c2)c(-c2cnn(C)c2)nn3C)c2n1CCN(C(C)=O)C2 [Example 31, 7-Acetyl-N-methyl-1-(1-methyl-3-(1-methyl-1H-pyrazol-4-yl)-1H-indazol-5-yl)-5,6,7,8-tetrahydroimidazo[1,5-a]pyrazine-3-carboxamide] | 611 | 7.47 |
| CNC(=O)N1CCn2c(C3CN(C)C3)nc(-c3ccc4c(c3)c(-c3cnn(C)c3)nn4C)c2C1 [Example 8, N-Methyl-1-(1-methyl-3-(1-methyl-1H-pyrazol-4-yl)-1H-indazol-5-yl)-3-(1-methylazetidin-3-yl)-5,6-dihydroimidazo[1,5-a]pyrazine-7(8H)-carboxamide] | 115 | > 10 |
| CC(=O)N1CCn2c(C3CC3)nc(-c3ccc4nn(C)c(-c5cnn(C)c5)c4c3F)c2C1 [Example 27, 1-(3-Cyclopropyl-1-(4-fluoro-2-methyl-3-(1-methyl-1H-pyrazol-4-yl)-2H-indazol-5-yl)-5,6-dihydroimidazo[1,5-a]pyrazin-7(8H)-yl)ethan-1-one] | 1220 | > 25 |
| COc1ccc(-c2nc(C3CC3)n3c2CN(C(C)=O)CC3)cc1OC [Example 42, 1-(3-cyclopropyl-1-(3,4-dimethoxyphenyl)-5,6-dihydroimidazo[1,5-a]pyrazin-7(8H)-yl)ethan-1-one] | 4260 | > 25 |
| CNC(=O)N1CCn2c(C3CCS(=O)(=O)CC3)nc(-c3ccc4c(c3)c(-c3cnn(C)c3)nn4C)c2C1 [Example 15, 3-(1,1-Dioxothian-4-yl)-N-methyl-1-[1-methyl-3-(1-methylpyrazol-4-yl)indazol-5-yl]-6,8-dihydro-5H-imidazo[1,5-a]pyrazine-7-carboxamide] | 46 | 21.9 |
| CNC(=O)N1CCn2cnc(-c3ccc4c(c3)c(-c3cnn(C)c3)nn4C)c2C1 [Example 11, N-Methyl-1-(1-methyl-3-(1-methyl-1H-pyrazol-4-yl)-1H-indazol-5-yl)-5,6-dihydroimidazo[1,5-a]pyrazine-7(8H)-carboxamide] | 26 | > 10 |
| CNC(=O)N1CCn2c(C3CC3)nc(N3CCCc4nc(-c5cnn(C)c5)c(C(F)(F)F)cc43)c2C1 [Example 33, 3-Cyclopropyl-N-methyl-1-(6-(1-methyl-1H-pyrazol-4-yl)-7-(trifluoromethyl)-3,4-dihydro-1,5-naphthyridin-1(2H)-yl)-5,6-dihydroimidazo[1,5-a]pyrazine-7(8H)-carboxamide] | 40 | > 10 |
| CC(=O)N1CCn2c(C)nc(-c3ccc4c(c3)c(-c3cnn(C)c3)nn4C)c2C1 [Example 47, 1-(3-methyl-1-(1-methyl-3-(1-methyl-1H-pyrazol-4-yl)-1H-indazol-5-yl)-5,6-dihydroimidazo[1,5-a]pyrazin-7(8H)-yl)ethan-1-one] | 153 | > 10 |

Results, then the molecule that gave them:

| IC50 [1] [nM] | IC50 [2] [µM] | SMILES |
| --- | --- | --- |
| 141 | > 10 | CC(=O)N1CCn2c(C3CCN(C)CC3)nc(-c3ccc4c(c3)c(-c3cnn(C)c3)nn4C)c2C1 [Example 54, 1-(1-(1-methyl-3-(1-methyl-1H-pyrazol-4-yl)-1H-indazol-5-yl)-3-(1-methylpiperidin-4-yl)-5,6-dihydroimidazo[1,5-a]pyrazin-7(8H)-yl)ethan-1-one] |
| 679 | > 25 | CC(=O)N1CCn2c(C3CC3)nc(N3CCCc4cc(-c5cnn(CC6CC6)c5)ccc43)c2C1 [Example 115, 1-(3-cyclopropyl-1-(6-(1-(cyclopropylmethyl)-1H-pyrazol-4-yl)-3,4-dihydroquinolin-1(2H)-yl)-5,6-dihydroimidazo[1,5-a]pyrazin-7(8H)-yl)ethan-1-one] |
| 17 | 10.1 | CNC(=O)N1CCn2c(C3CC3)nc(-c3cccc4cc(-c5cn(C)nc5C)ncc34)c2C1 [Example 69, 3-cyclopropyl-1-(3-(1,3-dimethyl-1H-pyrazol-4-yl)isoquinolin-8-yl)-N-methyl-5,6-dihydroimidazo[1,5-a]pyrazine-7(8H)-carboxamide] |
| 22 | > 10 | CNC(=O)N1CCn2c(C3CCN(C)CC3)nc(-c3ccc4c(c3)c(-c3cnn(C)c3)nn4C)c2C1 [Example 56, N-methyl-1-(1-methyl-3-(1-methyl-1H-pyrazol-4-yl)-1H-indazol-5-yl)-3-(1-methylpiperidin-4-yl)-5,6-dihydroimidazo[1,5-a]pyrazine-7(8H)-carboxamide] |
| 715 | > 25 | CC(=O)N1CCn2c(C3CC3)nc(N3CCCc4cc(-c5ccnc(C(F)(F)F)c5)ccc43)c2C1 [Example 118, 1-(3-cyclopropyl-1-(6-(2-(trifluoromethyl)pyridin-4-yl)-3,4-dihydroquinolin-1(2H)-yl)-5,6-dihydroimidazo[1,5-a]pyrazin-7(8H)-yl)ethan-1-one] |
| 148 | 14.3 | CC(=O)N1CCn2c(C3CC3)nc(N3CCCc4cc(-c5cnn(C6CC6)c5)ccc43)c2C1 [Example 108, 1-(3-cyclopropyl-1-(6-(1-cyclopropyl-1H-pyrazol-4-yl)-3,4-dihydroquinolin-1(2H)-yl)-5,6-dihydroimidazo[1,5-a]pyrazin-7(8H)-yl)ethan-1-one] |
| 1 | 13.5 | CNC(=O)N1CCn2c(C3CCC(F)(F)CC3)nc(-c3cccc4nc(-c5cnn(C)c5)c(C(F)(F)F)cc34)c2C1 [Example 78, 3-(4,4-difluorocyclohexyl)-N-methyl-1-(2-(1-methyl-1H-pyrazol-4-yl)-3-(trifluoromethyl)quinolin-5-yl)-5,6-dihydroimidazo[1,5-a]pyrazine-7(8H)-carboxamide] |
| 18 | > 10 | CNC(=O)N1CCn2c(C3CCN(C(C)=O)CC3)nc(-c3ccc4c(c3)c(-c3cnn(C)c3)nn4C)c2C1 [Example 55, 3-(1-acetylpiperidin-4-yl)-N-methyl-1-(1-methyl-3-(1-methyl-1H-pyrazol-4-yl)-1H-indazol-5-yl)-5,6-dihydroimidazo[1,5-a]pyrazine-7(8H)-carboxamide] |
| 2 | 5.54 | CNC(=O)N1CCn2c(C3CC(F)(F)C3)nc(-c3cccc4cc(-c5cnc(C)s5)ncc34)c2C1 [Example 96, 3-(3,3-difluorocyclobutyl)-N-methyl-1-(3-(2-methylthiazol-5-yl)isoquinolin-8-yl)-5,6-dihydroimidazo[1,5-a]pyrazine-7(8H)-carboxamide] |
| 286 | > 25 | CC(=O)N1CCn2c(C3CC3)nc(-c3ccc4c(c3)c(-c3cn(C)nc3C)nn4C)c2C1 [Example 106, 1-(3-cyclopropyl-1-(3-(1,3-dimethyl-1H-pyrazol-4-yl)-1methyl-1H-indazol-5-yl)-5,6-dihydroimidazo[1,5-a]pyrazin-7(8H)-yl)ethan-1-one] |
| 22 | > 25 | CNC(=O)N1CCn2c(C3CC3)nc(-c3c(F)ccc4cc(C5CCOCC5)ncc34)c2C1 [Example 75, 3-cyclopropyl-1-(7-fluoro-3-(tetrahydro-2H-pyran-4-yl)isoquinolin-8-yl)-N-methyl-5,6-dihydroimidazo[1,5-a]pyrazine-7(8H)-carboxamide] |
| 358 | > 25 | CC(=O)N1CCn2c(C3CC3)nc(N3CCCc4cc(-c5cccc(S(N)(=O)=O)c5)ccc43)c2C1 [Example 120, 3-(1-(7-acetyl-3-cyclopropyl-5,6,7,8-tetrahydroimidazo[1,5-a]pyrazin-1-yl)-1,2,3,4-tetrahydroquinolin-6-yl)benzenesulfonamide] |
| 500 | > 25 | CC(=O)N1CCn2c(C3CC3)nc(N3CCCc4cc(-c5cnn(CCN6CCOCC6)c5)ccc43)c2C1 [Example 122, 1-(3-cyclopropyl-1-(6-(1-(2-morpholinoethyl)-1H-pyrazol-4-yl)-3,4-dihydroquinolin-1(2H)-yl)-5,6-dihydroimidazo[1,5-a]pyrazin-7(8H)-yl)ethan-1-one] |
| 149 | > 10 | CC(=O)N1CCn2c(C3CCNCC3)nc(-c3ccc4c(c3)c(-c3cnn(C)c3)nn4C)c2C1 [Example 51, 1-(1-(1-methyl-3-(1-methyl-1H-pyrazol-4-yl)-1H-indazol-5-yl)-3-(piperidin-4-yl)-5,6-dihydroimidazo[1,5-a]pyrazin-7(8H)-yl)ethan-1-one] |
